pIC50: −log10 of the molar value.
Key:
[1] = Protein binding in human plasma at 1 uM incubated incubated for 5 hrs under shaking conditions by LC-MS analysis; format: ADME, cell-free; conditions: read-out: PPB (converted)
[2] = n-Octanol-water partition coefficient, logD of compound at 1 mg measured after 48 hrs under shaking condition by LC-MS analysis; format: physicochemical
[3] = biological target: TRAF2 and NCK-interacting protein kinase (Homo sapiens, UniProt Q9UKE5); experiment: Inhibition of human TNIK (1 to 367 residues) using RLGRDKYKTLRQI as substrate incubated for 40 mins in presence of [gamma33P]ATP by radiometric scintillation counting analysis
TRAF2 and NCK-interacting protein kinase, sequence (Q9UKE5 whole entry, the tested form may be a part): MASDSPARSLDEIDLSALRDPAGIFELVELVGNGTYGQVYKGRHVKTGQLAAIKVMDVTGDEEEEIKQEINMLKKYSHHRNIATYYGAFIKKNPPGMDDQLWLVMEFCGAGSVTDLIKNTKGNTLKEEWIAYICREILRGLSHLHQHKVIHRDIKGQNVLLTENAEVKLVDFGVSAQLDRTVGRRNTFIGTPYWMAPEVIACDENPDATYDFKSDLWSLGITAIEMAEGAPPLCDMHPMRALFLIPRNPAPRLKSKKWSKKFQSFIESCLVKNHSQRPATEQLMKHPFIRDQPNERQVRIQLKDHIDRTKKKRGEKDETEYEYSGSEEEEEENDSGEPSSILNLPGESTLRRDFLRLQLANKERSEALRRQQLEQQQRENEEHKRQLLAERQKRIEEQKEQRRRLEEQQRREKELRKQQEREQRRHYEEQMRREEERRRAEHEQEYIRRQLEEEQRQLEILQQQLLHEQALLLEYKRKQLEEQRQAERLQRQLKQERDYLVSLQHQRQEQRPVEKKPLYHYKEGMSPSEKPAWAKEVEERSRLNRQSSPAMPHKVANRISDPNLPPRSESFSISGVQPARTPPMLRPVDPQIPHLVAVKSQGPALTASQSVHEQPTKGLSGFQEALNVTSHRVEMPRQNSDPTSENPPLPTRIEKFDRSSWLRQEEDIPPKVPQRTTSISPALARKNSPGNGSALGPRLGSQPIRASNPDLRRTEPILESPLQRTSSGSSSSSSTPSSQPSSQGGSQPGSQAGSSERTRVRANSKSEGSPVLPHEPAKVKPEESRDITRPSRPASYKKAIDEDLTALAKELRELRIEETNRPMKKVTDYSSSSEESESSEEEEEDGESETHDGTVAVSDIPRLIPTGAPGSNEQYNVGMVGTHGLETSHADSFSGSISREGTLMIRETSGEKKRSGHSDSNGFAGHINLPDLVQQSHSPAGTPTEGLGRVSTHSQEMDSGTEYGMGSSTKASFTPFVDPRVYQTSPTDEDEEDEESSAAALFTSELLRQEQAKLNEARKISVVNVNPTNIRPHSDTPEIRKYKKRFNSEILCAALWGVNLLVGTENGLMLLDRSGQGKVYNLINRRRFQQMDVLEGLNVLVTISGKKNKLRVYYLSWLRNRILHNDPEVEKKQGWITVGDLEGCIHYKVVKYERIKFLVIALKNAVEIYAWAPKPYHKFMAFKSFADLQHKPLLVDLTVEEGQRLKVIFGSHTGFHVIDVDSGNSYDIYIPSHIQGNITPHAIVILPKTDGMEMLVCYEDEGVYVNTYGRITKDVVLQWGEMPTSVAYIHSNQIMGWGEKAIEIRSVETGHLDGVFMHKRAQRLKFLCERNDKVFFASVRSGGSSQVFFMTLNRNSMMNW

[4] = biological target: Platelet-derived growth factor receptor alpha (Homo sapiens, UniProt P16234, V561D); experiment: Inhibition of human PDGFRalpha V561D mutant (550 to end residues) using GGMEDIYFEFMGG as substrate measured after 40 mins in presence of [gamma33P]ATP by radiometric scintillation counting analysis
Ephrin type-A receptor 4 = Ephrin type-A receptor 4 (Homo sapiens, UniProt P54764); experiment: Inhibition of recombinant human EphA4 (601 to 892 residues) using poly(Glu, Tyr) 4:1 as substrate measured after 40 mins in presence of [gamma33ATP] by radiometric scintillation counting analysis
[5] = biological target: Serine/threonine-protein kinase DCLK3 (Homo sapiens, UniProt Q9C098); experiment: Inhibition of recombinant human DCAMKL3 (345 to end residues) using KKLNRTLSFAEPG as substrate after 40 mins in presence of [gamma-33ATP] by radiometric scintillation counting analysis
Serine/threonine-protein kinase DCLK3, sequence (Q9C098 whole entry, the tested form may be a part): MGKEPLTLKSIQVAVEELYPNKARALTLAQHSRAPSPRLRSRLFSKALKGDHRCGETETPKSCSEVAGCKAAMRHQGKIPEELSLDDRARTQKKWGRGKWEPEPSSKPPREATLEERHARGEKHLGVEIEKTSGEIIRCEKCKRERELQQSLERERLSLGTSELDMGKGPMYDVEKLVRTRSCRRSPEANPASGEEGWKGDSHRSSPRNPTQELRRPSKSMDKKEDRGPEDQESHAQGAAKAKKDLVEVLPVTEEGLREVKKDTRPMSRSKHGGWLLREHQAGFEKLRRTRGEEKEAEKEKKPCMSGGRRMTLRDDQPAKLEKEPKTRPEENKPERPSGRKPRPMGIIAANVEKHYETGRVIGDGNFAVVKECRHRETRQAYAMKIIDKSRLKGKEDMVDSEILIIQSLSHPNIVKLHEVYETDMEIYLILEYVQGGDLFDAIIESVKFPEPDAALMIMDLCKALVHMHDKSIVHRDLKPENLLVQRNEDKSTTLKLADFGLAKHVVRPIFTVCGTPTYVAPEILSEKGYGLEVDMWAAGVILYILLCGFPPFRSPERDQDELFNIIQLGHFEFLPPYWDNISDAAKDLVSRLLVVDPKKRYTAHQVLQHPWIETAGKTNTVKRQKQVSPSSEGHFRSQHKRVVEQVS

[6] = biological target: Serine/threonine-protein kinase 10 (Homo sapiens, UniProt O94804); experiment: Inhibition of recombinant human LOK (1 to 348 residues) using RLGRDKYKTLRQI as substrate after 40 mins in presence of [gamma-33ATP] by radiometric scintillation counting analysis
[7] = biological target: Serine/threonine-protein kinase MAK (Homo sapiens, UniProt P20794); experiment: Inhibition of recombinant human MAK using RRRFRPASPLRGP as substrate after 120 mins in presence of [gamma-33ATP] by radiometric scintillation counting analysis
Serine/threonine-protein kinase MAK, sequence (P20794 whole entry): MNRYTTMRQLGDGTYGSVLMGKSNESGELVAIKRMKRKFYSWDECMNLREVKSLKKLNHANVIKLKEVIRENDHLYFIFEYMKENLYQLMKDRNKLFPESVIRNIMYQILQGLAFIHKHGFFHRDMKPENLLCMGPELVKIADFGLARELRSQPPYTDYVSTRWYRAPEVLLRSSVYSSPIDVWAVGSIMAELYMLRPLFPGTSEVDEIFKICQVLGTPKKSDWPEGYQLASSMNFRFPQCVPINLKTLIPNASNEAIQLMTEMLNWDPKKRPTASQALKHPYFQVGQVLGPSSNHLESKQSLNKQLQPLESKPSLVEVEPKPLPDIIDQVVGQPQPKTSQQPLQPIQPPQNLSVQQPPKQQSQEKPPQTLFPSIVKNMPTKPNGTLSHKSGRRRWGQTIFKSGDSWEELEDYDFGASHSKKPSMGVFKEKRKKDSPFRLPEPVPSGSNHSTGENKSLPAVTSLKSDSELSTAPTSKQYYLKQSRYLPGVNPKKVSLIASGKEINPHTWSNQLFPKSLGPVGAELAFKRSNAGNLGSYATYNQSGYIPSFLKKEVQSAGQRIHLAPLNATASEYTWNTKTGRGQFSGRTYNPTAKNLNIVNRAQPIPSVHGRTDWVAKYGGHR

[8] = biological target: Calcium/calmodulin-dependent protein kinase type IV (Homo sapiens, UniProt Q16566); experiment: Inhibition of recombinant full length human CaMK4 using calmodulin as substrate incubated for 40 mins in presence of [gamma-33ATP] by radiometric scintillation counting analysis
[9] = biological target: Serine/threonine-protein kinase Sgk1 (Homo sapiens, UniProt O00141, S422D); experiment: Inhibition of recombinant human SGK S422D mutant (60 to end residues) using GRPRTSSFAEGKK as substrate incubated for 40 mins in presence of [gamma33P]ATP by radiometric scintillation counting analysis
[10] = biological target: Dual specificity mitogen-activated protein kinase kinase 6 (Homo sapiens, UniProt P52564); experiment: Inhibition of recombinant human MKK6 (4 to end residues) using SAPK2 as substrate incubated for 40 mins by radiometric scintillation counting analysis
Aurora kinase C = Aurora kinase C (Homo sapiens, UniProt Q9UQB9); experiment: Inhibition of human recombinant AURORA-C (35 to end residues) using AKRRRLSSLRA as substrate incubated for 40 mins in presence of [gamma-33ATP] by radiometric scintillation counting analysis
[11] = biological target: 5'-AMP-activated protein kinase catalytic subunit alpha-1 (Homo sapiens, UniProt Q13131); experiment: Inhibition of human full length AMPKalpha1 recombinant using AMARAASAAALAR as substrate incubated for 40 mins in presence of [gamma-33ATP] by radiometric scintillation counting analysis
5'-AMP-activated protein kinase catalytic subunit alpha-1, sequence (Q13131 whole entry): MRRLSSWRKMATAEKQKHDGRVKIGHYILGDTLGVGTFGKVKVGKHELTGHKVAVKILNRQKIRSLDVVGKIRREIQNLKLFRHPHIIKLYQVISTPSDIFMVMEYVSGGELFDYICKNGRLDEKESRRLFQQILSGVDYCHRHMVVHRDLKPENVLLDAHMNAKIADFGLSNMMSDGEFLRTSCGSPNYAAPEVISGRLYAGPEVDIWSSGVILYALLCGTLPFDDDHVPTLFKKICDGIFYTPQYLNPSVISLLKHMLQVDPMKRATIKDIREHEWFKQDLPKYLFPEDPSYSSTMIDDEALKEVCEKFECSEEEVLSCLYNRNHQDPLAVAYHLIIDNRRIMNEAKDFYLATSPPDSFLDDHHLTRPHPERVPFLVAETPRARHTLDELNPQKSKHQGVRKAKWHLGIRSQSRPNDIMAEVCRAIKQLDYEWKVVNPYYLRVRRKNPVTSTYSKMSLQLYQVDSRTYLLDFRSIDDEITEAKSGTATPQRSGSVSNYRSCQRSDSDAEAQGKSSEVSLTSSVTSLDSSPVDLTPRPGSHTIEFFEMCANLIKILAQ

[12] = biological target: Ribosomal protein S6 kinase alpha-2 (Homo sapiens, UniProt Q15349); experiment: Inhibition of recombinant full length human Rsk3 using KKKNRTLSVA as substrate incubated for 40 mins in presence of [gamma33P]ATP by radiometric scintillation counting analysis
Ribosomal protein S6 kinase alpha-2, sequence (Q15349 whole entry): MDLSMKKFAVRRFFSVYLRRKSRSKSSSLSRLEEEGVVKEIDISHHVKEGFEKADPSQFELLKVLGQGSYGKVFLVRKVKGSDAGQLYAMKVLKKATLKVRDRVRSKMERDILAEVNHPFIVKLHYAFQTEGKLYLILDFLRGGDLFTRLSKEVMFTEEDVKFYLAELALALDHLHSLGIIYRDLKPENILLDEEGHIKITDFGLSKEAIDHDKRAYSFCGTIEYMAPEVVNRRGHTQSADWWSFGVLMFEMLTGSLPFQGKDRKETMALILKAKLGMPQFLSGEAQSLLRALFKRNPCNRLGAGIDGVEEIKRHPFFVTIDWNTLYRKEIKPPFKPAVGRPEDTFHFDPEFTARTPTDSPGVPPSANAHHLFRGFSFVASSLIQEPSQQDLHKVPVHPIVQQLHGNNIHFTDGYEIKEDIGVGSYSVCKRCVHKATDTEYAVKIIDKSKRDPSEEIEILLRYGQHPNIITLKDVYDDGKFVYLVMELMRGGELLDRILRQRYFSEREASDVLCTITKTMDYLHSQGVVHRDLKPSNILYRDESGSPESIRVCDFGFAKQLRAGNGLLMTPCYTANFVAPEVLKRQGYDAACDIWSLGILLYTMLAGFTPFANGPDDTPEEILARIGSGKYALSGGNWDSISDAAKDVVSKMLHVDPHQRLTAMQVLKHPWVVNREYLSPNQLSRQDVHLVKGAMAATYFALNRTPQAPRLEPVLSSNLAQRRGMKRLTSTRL

[13] = biological target: Death-associated protein kinase 2 (Homo sapiens, UniProt Q9UIK4); experiment: Inhibition of recombinant full length human DAPK2 using Calmodulin as substrate incubated 40 mins in presence of [gamma-33ATP] by radiometric scintillation counting analysis
Death-associated protein kinase 2, sequence (Q9UIK4 whole entry): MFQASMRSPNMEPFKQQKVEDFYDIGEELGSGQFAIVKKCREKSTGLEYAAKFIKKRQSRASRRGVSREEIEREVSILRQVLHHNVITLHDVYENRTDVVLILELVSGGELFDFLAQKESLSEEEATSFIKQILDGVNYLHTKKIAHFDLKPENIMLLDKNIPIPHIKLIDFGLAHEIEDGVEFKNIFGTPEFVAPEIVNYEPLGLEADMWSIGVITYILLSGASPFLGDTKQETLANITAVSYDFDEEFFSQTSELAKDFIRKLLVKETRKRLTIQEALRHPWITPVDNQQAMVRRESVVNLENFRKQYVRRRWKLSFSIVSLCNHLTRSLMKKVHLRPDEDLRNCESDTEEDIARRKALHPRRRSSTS

[14] = biological target: Activin receptor type-1-like (Homo sapiens, UniProt P37023); experiment: Inhibition of human recombinant ALK1 (142 to end residues) using casein as substrate incubated for 40 mins in presence of [gamma-33P]ATP by radiometric scintillation counting analysis
[15] = biological target: Serine/threonine-protein kinase DCLK2 (Homo sapiens, UniProt Q8N568); experiment: Inhibition of recombinant human DCAMKL2 (376 to end residues) using KKLNRTLSFAEPG as substrate after 40 mins in presence of [gamma-33ATP] by radiometric scintillation counting analysis
[16] = Inhibition of recombinant human MER H628Q/R794A double mutant (557 to 882 residues) using KKLNRTLSFAEPG as substrate incubated for 40 mins in presence of [gamma-33ATP by radiometric scintillation counting analysis
SRSF protein kinase 1 = SRSF protein kinase 1 (Homo sapiens, UniProt Q96SB4); experiment: Inhibition of recombinant human SRPK1 (2 to end residues) using RSRSRSRSRSRSRSR as substrate incubated for 40 mins in presence of [gamma33P]ATP by radiometric scintillation counting analysis
SRSF protein kinase 1, sequence (Q96SB4 whole entry): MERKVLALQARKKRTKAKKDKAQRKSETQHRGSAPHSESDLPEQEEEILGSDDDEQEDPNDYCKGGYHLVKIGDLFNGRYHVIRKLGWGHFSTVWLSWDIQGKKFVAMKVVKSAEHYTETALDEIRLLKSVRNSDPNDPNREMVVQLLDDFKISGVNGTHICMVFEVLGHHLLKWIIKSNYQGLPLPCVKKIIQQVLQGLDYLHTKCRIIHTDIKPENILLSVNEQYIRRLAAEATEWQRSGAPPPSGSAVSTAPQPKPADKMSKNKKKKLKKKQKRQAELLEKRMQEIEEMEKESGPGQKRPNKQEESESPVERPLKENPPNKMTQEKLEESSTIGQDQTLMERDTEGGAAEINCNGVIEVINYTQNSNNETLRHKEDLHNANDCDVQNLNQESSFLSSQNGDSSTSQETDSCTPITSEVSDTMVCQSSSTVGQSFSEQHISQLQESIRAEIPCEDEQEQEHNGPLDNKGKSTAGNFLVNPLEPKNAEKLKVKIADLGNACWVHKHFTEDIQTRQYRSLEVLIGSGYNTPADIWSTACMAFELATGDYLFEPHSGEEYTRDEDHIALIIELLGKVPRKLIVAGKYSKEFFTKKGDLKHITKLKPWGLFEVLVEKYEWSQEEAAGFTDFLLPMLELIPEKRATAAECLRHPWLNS

Ephrin type-A receptor 1 = Ephrin type-A receptor 1 (Homo sapiens, UniProt P21709); experiment: Inhibition of recombinant human EphA1 (568 to end residues) using KKKSPGEYVNIEF as substrate after 40 mins in presence of [gamma-33ATP] by radiometric scintillation counting analysis
[17] = biological target: Transient receptor potential cation channel subfamily M member 7 (Homo sapiens, UniProt Q96QT4); experiment: Inhibition of recombinant human CHAK1 (1180 to end residues) using myelin basic protein as substrate incubated for 40 mins in presence of [gamma-33ATP] by radiometric scintillation counting analysis
[18] = Inhibition of recombinant full length human PKBalpha S478G mutant using GRPRTSSFAEGKK as substrate incubated for 40 mins in presence of [gamma33P]ATP by radiometric scintillation counting analysis
[19] = biological target: Ribosomal protein S6 kinase alpha-4 (Homo sapiens, UniProt O75676); experiment: Inhibition of recombinant human MSK2 (2 to end residues) using GRPRTSSFAEGKK as substrate incubated for 40 mins in presence of [gamma-33ATP by radiometric scintillation counting analysis
[20] = biological target: Tyrosine-protein kinase Lyn (Homo sapiens, UniProt P07948); experiment: Inhibition of recombinant full length human Lyn using poly(Glu, Tyr) 4:1 as substrate after 40 mins in presence of [gamma-33ATP] by radiometric scintillation counting analysis
[21] = Inhibition of human PKA using Kemptide as substrate incubated for 40 mins in presence of [gamma-33P]ATP by radiometric scintillation counting analysis
[22] = biological target: Serine/threonine-protein kinase MRCK alpha (Homo sapiens, UniProt Q5VT25); experiment: Inhibition of recombinant human MRCKalpha (1 to 473 residues) using KKRNRTLTV as substrate incubated for 40 mins in presence of [gamma-33ATP by radiometric scintillation counting analysis
[23] = biological target: Serine/threonine-protein kinase PAK 3 (Homo sapiens, UniProt O75914); experiment: Inhibition of recombinant full-length human PAK3 using RRRLSFAEPG as substrate measured after 40 mins in presence of [gamma33P]ATP by radiometric scintillation counting analysis

CN(C)c1ccc(C(=O)Nc2cccc(NC(=O)COc3ccc4c(=O)ccoc4c3)c2)cc1
fraction unbound at 5 h, 1 µM [1]: 0.002 | logD at 48 h [2]: 2.65 | pIC50 [3]: < 5.00 | pIC50 [4]: < 5.00 | pIC50 (Ephrin type-A receptor 4): < 5.00 | pIC50 [5]: < 5.00 | pIC50 [6]: < 5.00 | pIC50 [7]: < 5.00 | pIC50 [8]: < 5.00 | pIC50 [9]: < 5.00 | pIC50 [10]: < 5.00 | pIC50 (Aurora kinase C): < 5.00 | pIC50 [11]: < 5.00 | pIC50 [12]: < 5.00 | pIC50 [13]: < 5.00 | pIC50 [14]: < 5.00 | pIC50 [15]: < 5.00 | pIC50 [16]: < 5.00 | pIC50 (SRSF protein kinase 1): < 5.00 | pIC50 (Ephrin type-A receptor 1): < 5.00 | pIC50 [17]: < 5.00 | pIC50 [18]: < 5.00 | pIC50 [19]: < 5.00 | pIC50 [20]: < 5.00 | pIC50 [21]: < 5.00 | pIC50 [22]: < 5.00 | pIC50 [23]: < 5.00

Reference: ChEMBL document CHEMBL4376834, “Discovery of 4H-Chromen-4-one Derivatives as a New Class of Selective Rho Kinase (ROCK) Inhibitors, which Showed Potent Activity in ex Vivo Diabetic Retinopathy Models” (J Med Chem, 2019)
